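In this assay, cells in 96-well plates receive the compound at five concentrations for 48 hours. Endpoints are linearly interpolated between the surrounding concentrations. GI50 is the concentration that inhibits growth by half.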 The source made the active and inactive calls. No stated cut-off is given here; in the data, active = GI50 up to about 1.1 µM and inactive = higher.
Columns and labels:
Experiment in all cases: inhibition of tumour cell growth, NCI panel, 48 h
ACHN = tested on: ACHN
BT-549 = tested on: BT-549
CCRF-CEM = tested on: CCRF-CEM
HCT-116 = tested on: HCT-116
HOP-92 = tested on: HOP-92
Hs-578T = tested on: Hs-578T
LOX IMVI = tested on: LOX IMVI
MDA-MB-231 = tested on: MDA-MB-231
NCI-H23 = tested on: NCI-H23
NCI-H460 = tested on: NCI-H460
NCI/ADR-RES = tested on: NCI/ADR-RES
OVCAR-8 = tested on: OVCAR-8
PC-3 = tested on: PC-3
SK-MEL-28 = tested on: SK-MEL-28
SK-MEL-2 = tested on: SK-MEL-2
SN12C = tested on: SN12C
SNB-19 = tested on: SNB-19
U-251 = tested on: U-251
Malme-3M = tested on: Malme-3M

Measured: GI50

CCOP(=O)(CN1CCNCCN(CP(=O)(OCC)OCC)CC1)OCC
inactive: ACHN > 100 µM | BT-549 > 100 µM | CCRF-CEM > 31.6 µM | HCT-116 > 100 µM | HOP-92 > 100 µM | Hs-578T > 100 µM | LOX IMVI > 100 µM | MDA-MB-231 > 100 µM | NCI-H23 > 100 µM | NCI-H460 > 100 µM | NCI/ADR-RES > 100 µM | OVCAR-8 > 100 µM | PC-3 > 100 µM | SK-MEL-28 > 100 µM | SK-MEL-2 > 100 µM | SN12C > 100 µM | SNB-19 > 100 µM | U-251 > 100 µM

CCOC(=O)C1(C(=O)OCC)Nc2cccnc2N(C)N1
inactive: BT-549 67.3 µM | CCRF-CEM 18.5 µM | HCT-116 18.8 µM | HOP-92 14.7 µM | Hs-578T > 100 µM | LOX IMVI 25.4 µM | MDA-MB-231 20.2 µM | Malme-3M 48.1 µM | NCI-H23 20.5 µM | NCI-H460 > 100 µM | NCI/ADR-RES 20 µM | OVCAR-8 18.5 µM | PC-3 22.8 µM | SK-MEL-28 21.9 µM | SK-MEL-2 19.3 µM | SN12C 19.1 µM | SNB-19 > 100 µM | U-251 20.8 µM

O=[N+]([O-])c1ccc2c3c1[C@@H]1O[C@@H]1c1cccc(c1-3)[C@@H]1O[C@H]21
inactive: ACHN 1.94 µM | BT-549 6.11 µM | CCRF-CEM 2.45 µM | HCT-116 2.42 µM | HOP-92 9.46 µM | Hs-578T 3.1 µM | LOX IMVI 1.27 µM | MDA-MB-231 6.44 µM | Malme-3M 3.49 µM | NCI-H23 3.94 µM | NCI/ADR-RES 4.91 µM | OVCAR-8 2.04 µM | PC-3 7.91 µM | SK-MEL-28 3.1 µM | SK-MEL-2 6.14 µM | SN12C 2.71 µM | SNB-19 14.6 µM | U-251 4.08 µM

N=C(N)Nc1nc2cc([N+](=O)[O-])ccc2[nH]1
inactive: ACHN > 100 µM | BT-549 48.1 µM | CCRF-CEM > 100 µM | HCT-116 > 100 µM | HOP-92 > 100 µM | Hs-578T > 100 µM | LOX IMVI > 100 µM | MDA-MB-231 > 100 µM | Malme-3M > 100 µM | NCI-H23 68.7 µM | NCI-H460 > 100 µM | NCI/ADR-RES 58.5 µM | OVCAR-8 > 100 µM | PC-3 81.1 µM | SK-MEL-28 > 100 µM | SK-MEL-2 > 100 µM | SN12C 86.1 µM | SNB-19 > 100 µM | U-251 91.4 µM
